Data: patent US20240287138A1, “CYCLIC PEPTIDES FOR INHIBITING TNF RECEPTOR 1 ACTIVITY” (Merck Sharp & Dohme LLC, priority 2023, published 2024)
Numbered stars: 1 amine (or outer) side, 2 acyl side, 3 side chain; on linkers, the order of the positions; unused ones are H or OH. Bridge positions count the residues as written; N and C are the ends. Square brackets hold non-standard residues; d marks the D form. Peptide text beside a SMILES is read from it. Trp(βS-Me,7-OMe) = COc1cccc2c([C@H](C)[C@H](N)C(=O)O)c[nH]c12; Ala(1-bicyclo(1.1.1)pentyl) = N[C@@H](CC12CC(C1)C2)C(=O)O; Phe(3-CH2NH2) = O=C([C@H](Cc1cccc(CN[*:3])c1)N[*:1])[*:2]; Trp(4-Cl) = N[C@@H](Cc1c[nH]c2cccc(Cl)c12)C(=O)O; Trp(7-CN) = N#Cc1cccc2c(C[C@H](N)C(=O)O)c[nH]c12; Trp(7-Cl) = N[C@@H](Cc1c[nH]c2c(Cl)cccc12)C(=O)O; Phe(3-CONH2) = NC(=O)c1cccc(C[C@H](N)C(=O)O)c1; Phe(4-CONH2) = NC(=O)c1ccc(C[C@H](N)C(=O)O)cc1; Phe(4-COOH) = N[C@@H](Cc1ccc(C(=O)O)cc1)C(=O)O; X2 = C[C@@H]1CC[C@@H](C(=O)[*:2])N([*:1])C1; Pip(5R-OH) = O=C(O)[C@@H]1CC[C@@H](O)CN1; X13 = O=C([C@H]1CC[C@@H](N[*:1])C1)[*:2]; X1 = O=C([C@@H]1CC[C@H](N[*:1])C1)[*:2]; Gly(Nα-CH2CH2CONH2) = NC(=O)CCNCC(=O)O; 1Nal = N[C@@H](Cc1cccc2ccccc12)C(=O)O; 2Nal = N[C@@H](Cc1ccc2ccccc2c1)C(=O)O; Pip(4-aza) = O=C(O)[C@@H]1CNCCN1; 4Pal = N[C@@H](Cc1ccncc1)C(=O)O; NMeE = CN[C@@H](CCC(=O)O)C(=O)O; NMeN = CN[C@@H](CC(N)=O)C(=O)O; Ahp(2) = CCCCC[C@H](N)C(=O)O; αMeS = C[C@](N)(CO)C(=O)O; NMeA = CN[C@@H](C)C(=O)O; Nle = CCCC[C@H](N)C(=O)O; Sar = CNCC(=O)O

Molecular target: T1, TNFα-induced NF-κB signal transduction pathway (TNFR1 signaling) in THP-1 cells (Homo sapiens, UniProt P19438)
T1 sequence (P19438 30-455): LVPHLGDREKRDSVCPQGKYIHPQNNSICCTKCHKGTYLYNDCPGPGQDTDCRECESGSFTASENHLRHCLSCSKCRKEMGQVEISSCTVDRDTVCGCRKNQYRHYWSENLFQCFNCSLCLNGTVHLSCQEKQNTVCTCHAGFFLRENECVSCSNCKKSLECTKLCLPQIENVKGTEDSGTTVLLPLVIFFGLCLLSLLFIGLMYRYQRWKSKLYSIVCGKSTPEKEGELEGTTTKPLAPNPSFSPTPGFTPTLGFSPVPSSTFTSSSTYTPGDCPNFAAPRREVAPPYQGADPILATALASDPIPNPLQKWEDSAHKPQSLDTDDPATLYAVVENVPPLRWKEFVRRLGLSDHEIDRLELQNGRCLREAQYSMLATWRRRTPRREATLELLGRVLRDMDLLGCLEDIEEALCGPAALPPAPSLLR
Assay: THP-1 Lucia NF-κB reporter cell assay, inhibition of TNFα-induced NF-κB signaling
Format: cell-based
Conditions: THP-1 NF-κB Lucia reporter cells, 10 ng/mL TNFα, 16-18 h, secreted luciferase; read-out: THP-1 IC50
How it was run: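 IC50 from a 4-parameter logistic fit of secreted luciferase luminescence (QUANTI-Luc), normalised to min/max controls. Reporter THP-1 cells were exposed to peptides for 1 h at 37 °C before 10 ng/mL TNFα (final) was added overnight (16–18 h).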

Row | Structure (SMILES) | IC50
1 | CCCC[C@@H]1NC(=O)CSC[C@@H](C(N)=O)NC(=O)[C@H]([C@@H](C)c2c[nH]c3c(OC)cccc23)NC(=O)CN(C)C(=O)[C@H](Cc2ccc(O)cc2)NC(=O)[C@H](Cc2ccc(C(=O)O)cc2)NC(=O)[C@](C)(CO)NC(=O)[C@H](Cc2c[nH]c3c(Cl)cccc23)NC(=O)[C@H](Cc2ccncc2)NC(=O)[C@H](CC(N)=O)NC(=O)[C@H](CCC(=O)O)N(C)C(=O)[C@H](Cc2c[nH]c3ccccc23)NC(=O)[C@@H]2CC[C@@H](C)CN2C(=O)[C@H](Cc2ccncc2)NC1=O [SEQ ID NO. 272] ({CH2CO}-[Nle][4Pal][X2]W[NMeE]N[4Pal][Trp(7-Cl)][αMeS][Phe(4-COOH)]Y[Sar][Trp(βS-Me,7-OMe)]C-NH2; thioether N-14) | 2.6 nM
2 | CN1CC(=O)N[C@@H](Cc2c[nH]c3cccc(Cl)c23)C(=O)N[C@H](C(N)=O)CSCC(=O)N[C@@H](CC23CC(C2)C3)C(=O)N[C@@H](Cc2cccc(CN)c2)C(=O)N[C@@H](CO)C(=O)N[C@@H](Cc2c[nH]c3c(Cl)cccc23)C(=O)N2CCC[C@@H]2C(=O)N(C)[C@@H](CC(N)=O)C(=O)N[C@@H](Cc2ccc(C(=O)O)cc2)C(=O)N[C@@H](Cc2c[nH]c3c(Cl)cccc23)C(=O)N[C@@](C)(CO)C(=O)N[C@@H](Cc2ccc(C(=O)O)cc2)C(=O)N[C@@H](Cc2cccc(CN)c2)C1=O [SEQ ID NO. 222] ({CH2CO}-[Ala(1-bicyclo(1.1.1)pentyl)][Phe(3-CH2NH2)]S[Trp(7-Cl)][dP][NMeN][Phe(4-COOH)][Trp(7-Cl)][αMeS][Phe(4-COOH)][Phe(3-CH2NH2)][Sar][Trp(4-Cl)]C-NH2; thioether N-14) | 5.7 nM
3 | C[C@H]1C(=O)N[C@@H](CC(N)=O)C(=O)N[C@@H](Cc2ccncc2)C(=O)N[C@@H](Cc2ccc3ccccc3c2)C(=O)N[C@@](C)(CO)C(=O)N[C@@H](Cc2ccc(C(=O)O)cc2)C(=O)N[C@@H](Cc2ccc(O)cc2)C(=O)N(C)CC(=O)N[C@@H](Cc2c[nH]c3ccccc23)C(=O)N[C@H](C(N)=O)CSCC(=O)N[C@@H](CCCCN)C(=O)N[C@@H](Cc2ccncc2)C(=O)N[C@@H](CO)C(=O)N[C@@H](Cc2cccc3ccccc23)C(=O)N1C [SEQ ID NO. 227] ({CH2CO}-K[4Pal]S[1Nal][NMeA]N[4Pal][2Nal][αMeS][Phe(4-COOH)]Y[Sar]WC-NH2; thioether N-14) | 13.5 nM
4 | CCCCC[C@@H]1NC(=O)[C@@H]2CC[C@@H](C2)NC(=O)[C@H]([C@@H](C)c2c[nH]c3c(OC)cccc23)NC(=O)CN(C)C(=O)[C@H](Cc2cccc(C(N)=O)c2)NC(=O)[C@H](Cc2ccc(C(N)=O)cc2)NC(=O)[C@](C)(CO)NC(=O)[C@H](Cc2c[nH]c3c(C#N)cccc23)NC(=O)[C@H](Cc2ccc(C(=O)O)cc2)NC(=O)[C@H](CC(N)=O)NC(=O)CN(CCC(N)=O)C(=O)[C@H](Cc2c[nH]c3ccccc23)NC(=O)[C@@H]2CNCCN2C(=O)[C@H](Cc2ccncc2)NC1=O [SEQ ID NO. 10] (cyclo([4Pal][Pip(4-aza)]W[Gly(Nα-CH2CH2CONH2)]N[Phe(4-COOH)][Trp(7-CN)][αMeS][Phe(4-CONH2)][Phe(3-CONH2)][Sar][Trp(βS-Me,7-OMe)][X1][Ahp(2)])) | 0.8 nM
5 | CCCC[C@@H]1NC(=O)[C@H]2CC[C@H](C2)NC(=O)[C@H]([C@@H](C)c2c[nH]c3c(OC)cccc23)NC(=O)CN(C)C(=O)[C@H](Cc2ccc(O)cc2)NC(=O)[C@H](Cc2ccc(C(N)=O)cc2)NC(=O)[C@](C)(CO)NC(=O)[C@H](Cc2c[nH]c3c(Cl)cccc23)NC(=O)[C@H](Cc2ccc(C(=O)O)cc2)NC(=O)[C@H](CC(N)=O)NC(=O)[C@H](CCC(=O)O)N(C)C(=O)[C@H](Cc2c[nH]c3ccccc23)NC(=O)[C@@H]2CC[C@@H](O)CN2C(=O)[C@H](Cc2ccncc2)NC1=O [SEQ ID NO. 267] (cyclo([4Pal][Pip(5R-OH)]W[NMeE]N[Phe(4-COOH)][Trp(7-Cl)][αMeS][Phe(4-CONH2)]Y[Sar][Trp(βS-Me,7-OMe)][X13][Nle])) | 1.7 nM
